Laboratory results from patent US20110124888A1, “STYRYLBENZOFURAN DERIVATIVES AS INHIBITORS FOR BETA-AMYLOID FIBRIL FORMATION AND PREPARATION METHOD THEREOF” (Korea Institute of Science and Technology, priority 2008, published 2011).
Where a name gives a salt, the structure may show the parent alone. Read-outs that look alike come from different tables or passages of the source. One block for each molecule: values may come before it.

Molecular target: T1, beta-amyloid 42 (Aβ42) (Homo sapiens, UniProt P05067)
T1 construct: Beta-amyloid 42 (Aβ42) was dissolved in dimethylsulfoxide (DMSO)
T1 sequence (P05067 672-713 limits assumed): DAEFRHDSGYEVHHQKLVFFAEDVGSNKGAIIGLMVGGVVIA
Assay: Inhibitory effect on the formation of beta-amyloid fibrils in vitro (ThT fluorescence assay)
Format: biochemical
Details: for IC50: In vitro ThT analysis (Aβ42: 25 μM); for inhibition at 10 µM: read-out: % Inhibition (10 μM); for % inhibition against the beta-amyloid 42 formation compared with curcumin: Tables 1 to 6, relative to curcumin
Experimental: In order to investigate the inhibitory effect on the formation of beta-amyloid fibrils, the inventive compounds were examined as follows:
Beta-amyloid 42 (Aβ42) was dissolved in dimethylsulfoxide (DMSO) to form a […] Aβ42 stock solution. In addition, ThT (thioflavin T) was dissolved in distilled water to a concentration of 1 mM and subsequently diluted with 50 mM glycin buffer (pH 8.5) to yield a 5 μM ThT stock solution.
45 μL of PBS (phosphate buffer saline, pH 7.4) was added to each of a 96 well fluorescence microplate (white, F-bottom). 5 μL of the 250 μM Aβ42 stock solution was added to each well. The final concentration of each compound obtained in Examples was in a range of 10 to 0.001 μM by adding 2 μL of a solution, which is prepared by dissolving the subject compounds obtained in Examples in DMSO, to each well. At this time, the final concentration of Aβ42 in each well was 25 μM. The plate was then incubated at room temperature for 1 hr, and 150 μL of the 5 μM ThT stock solution was added to each well.
The fluorescence intensity of each well was determined with the multi label fluorescence counter (LS-55 Luminescence spectrometer, Perkin Elmer) at an excitation wavelength of 450 nm (excitation slit width: 10 nm) and an emission wavelength of 482 nm (emission slit width: 10 nm), while adjusting counting time to 1 second. The control group was prepared by adding PBS solution, Aβ42 and DMSO, without adding the inventive compound. % Inhibition on the formation of beta-amyloid fibrils was calculated in accordance with the following equation and IC5O was calculated by using GraphPad Prism version 4.03 Program.
% Inhibition=[1−(C−D)/(A−B)]×100 Equation 1%
A (control group): fluorescence intensity in a group treated with PBS solution, Aβ42, and DMSO
B (blank): fluorescence intensity in a group treated with PBS solution and DMSO
C (experimental group): fluorescence intensity in a group treated with PBS solution, Aβ42, DMSO, and the inventive compound
D (compensation value to the experimental group): fluorescence intensity in a group treated with PBS solution, DMSO, and the inventive compound

[1] = 10 μM compound, Aβ42 25 μM, experiment of Table 2
[2] = 10 μM compound, Aβ42 25 μM, experiment of Table 5
[3] = 10 μM compound, Aβ42 25 μM, experiment of Table 3
[4] = 10 μM compound, Aβ42 25 μM, experiment of Table 6
[5] = 10 μM compound, Aβ42 25 μM, experiment of Table 4

IC50 (experiment of Table 1): 1340 nM
Molecule: CN(C)c1ccc(C=Cc2cc3ccc(Br)cc3o2)cc1 [Compound 14, 6-bromo-2-(4-dimethylaminostyryl)benzofuran]

inhibition at 10 µM [1]: 67.9%
IC50 (experiment of Table 2): 707 nM
% inhibition against the beta-amyloid 42 formation compared with curcumin: superior % inhibition
Molecule: COc1ccc(C=Cc2cc3cc(OC)ccc3o2)cc1 [Compound 37, 5-methoxy-2-(4-methoxystyryl)benzofuran]

inhibition at 10 µM [2]: 24.5%
Molecule: CNc1ccc(C=Cc2cc3cc(OC)ccc3o2)cc1OC [Compound 36, 5-methoxy-2-(3-methoxy-4-methylaminostyryl)benzofuran]

inhibition at 10 µM [3]: 57.5%
Molecule: Cc1ccc2cc(C=Cc3ccc(N)cc3)oc2c1 [Compound 61, 6-methyl-2-(4-aminostyryl)benzofuran trifluoroacetate]

inhibition at 10 µM [3]: 70.2%
inhibition at 10 µM [4]: 73.5%
IC50 (experiment of Table 6): 5050 nM
Molecule: CNc1ccc(C=Cc2cc3cc(C)ccc3o2)cc1 [Compound 40, 5-methyl-2-(4-methylaminostyryl)benzofuran trifluoroacetate]

IC50 (experiment of Table 1): 2300 nM
Molecule: CN(C)c1ccc(C=Cc2cc3ccccc3o2)cc1 [Compound 1, 2-(4-dimethylaminostyryl)benzofuran]

IC50 (experiment of Table 1): 3620 nM
Molecule: CN(C)c1ccc(C=Cc2cc3ccc(O)cc3o2)cc1 [Compound 10, 6-hydroxy-2-(4-dimethylaminostyryl)benzofuran]

inhibition at 10 µM [3]: 46.5%
Molecule: CNc1ccc(C=Cc2cc3ccc(C)cc3o2)cc1 [Compound 62, 6-methyl-2-(4-methylaminostyryl)benzofuran trifluoroacetate]

IC50 (experiment of Table 1): 3210 nM
Molecule: CN(C)c1ccc(C=Cc2cc3ccc(Cl)cc3o2)cc1 [Compound 13, 6-chloro-2-(4-dimethylaminostyryl)benzofuran]

inhibition at 10 µM [4]: 74.1%
IC50 (experiment of Table 6): 661 nM
% inhibition against the beta-amyloid 42 formation compared with curcumin: superior % inhibition
Molecule: CNc1ccc(/C=C/c2cc3cc(OC)ccc3o2)cc1 [hydrochloride of Ex. 17]

inhibition at 10 µM [2]: 25.8%
Molecule: CNc1ccc(C=Cc2cc3cc(OC)c(OC)cc3o2)cc1 [Compound 70, 5,6-dimethoxy-2-(4-methylaminostyryl)benzofuran]

inhibition at 10 µM [1]: 81.1%
IC50 (experiment of Table 2): 1560 nM
Molecule: COc1ccc2oc(C=Cc3ccc(OC)c(OC)c3)cc2c1 [Compound 38, 5-methoxy-2-(3,4-dimethoxystyryl)benzofuran]

IC50 (experiment of Table 1): 2950 nM
Molecule: Nc1ccc(C=Cc2cc3cc(O)ccc3o2)cc1 [Compound 18, 5-hydroxy-2-(4-aminostyryl)benzofuran hydrochloride]

IC50 (experiment of Table 1): 528 nM
% inhibition against the beta-amyloid 42 formation compared with curcumin: superior % inhibition
Molecule: COc1ccc2cc(C=Cc3ccc(N(C)C)c(OC)c3)oc2c1 [Compound 23, 6-methoxy-2-(3-methoxy-4-dimethylaminostyryl)benzofuran]

inhibition at 10 µM [5]: 37.9%
IC50 (experiment of Table 4): 963 nM
Molecule: CCN(CC)c1ccc(C=Cc2cc3cc(Cl)ccc3o2)cc1 [Compound 31, 5-chloro-2-(4-diethylaminostyryl)benzofuran]

IC50 (experiment of Table 1): 5440 nM
Molecule: COc1ccc2cc(C=Cc3ccc(N)cc3)oc2c1 [Compound 20, 6-methoxy-2-(4-aminostyryl)benzofuran]

IC50 (experiment of Table 1): 2160 nM
Molecule: CNc1ccc(C=Cc2cc3cc(O)ccc3o2)cc1 [Compound 19, 5-hydroxy-2-(4-methylaminostyryl)benzofuran hydrochloride]

inhibition at 10 µM [1]: 55.1%
IC50 (experiment of Table 2): 1180 nM
Molecule: CCN(CC)c1ccc(C=Cc2cc3cc(OC)ccc3o2)cc1 [Compound 35, 5-methoxy-2-(4-diethylaminostyryl)benzofuran]

inhibition at 10 µM [4]: 79.9%
IC50 (experiment of Table 6): 1020 nM
% inhibition against the beta-amyloid 42 formation compared with curcumin: superior % inhibition
Molecule: COc1ccc2cc(C=Cc3ccc(OC)c(OC)c3)oc2c1 [Compound 59, 6-methoxy-2-(3,4-dimethoxystyryl)benzofuran]

inhibition at 10 µM (10 μM compound, Aβ42 25 μM, experiment of Table 7): 63.4%
IC50 (experiment of Table 7): 3400 nM
Molecule: CN(C)c1ncc(/C=C/c2nc3ccccc3o2)s1 [Comparative Example 1, reference compound]

inhibition at 10 µM [2]: 61.9%
Molecule: CNc1ccc(C=Cc2cc3ccc(O)cc3o2)cc1 [Compound 68, 6-hydroxy-2-(4-methylaminostyryl)benzofuran]

IC50 (experiment of Table 1): 2800 nM
Molecule: CN(C)c1ccc(C=Cc2cc3ccc(I)cc3o2)cc1 [Compound 15, 6-iodo-2-(4-dimethylaminostyryl)benzofuran]

inhibition at 10 µM [2]: 51.4%
Molecule: COc1ccc(C=Cc2cc3cc(OC)c(OC)cc3o2)cc1OC [Compound 55, 5,6-dimethoxy-2-(3,4-dimethoxystyryl)benzofuran]

inhibition at 10 µM [2]: 42.2%
Molecule: CCN(CC)c1ccc(C=Cc2cc3ccc(O)cc3o2)cc1 [Compound 69, 6-hydroxy-2-(4-diethylaminostyryl)benzofuran]

inhibition at 10 µM [4]: 77.8%
IC50 (experiment of Table 6): 903 nM
% inhibition against the beta-amyloid 42 formation compared with curcumin: superior % inhibition
Molecule: COc1ccc(C=Cc2cc3cc(OC)c(OC)cc3o2)cc1 [Compound 54, 5,6-dimethoxy-2-(4-methoxystyryl)benzofuran]

IC50 (experiment of Table 1): 1980 nM
Molecule: CN(C)c1ccc(C=Cc2cc3cc(F)ccc3o2)cc1 [Compound 5, 5-fluoro-2-(4-dimethylaminostyryl)benzofuran]

inhibition at 10 µM [2]: 53.5%
Molecule: CNc1ccc(C=Cc2cc3cc(OCCOCCOCCF)ccc3o2)cc1 [Compound 45, 5-(2-(2-(2-fluoroethoxy)ethoxy)ethoxy)-2-(4-methylaminostyryl)benzofuran]

inhibition at 10 µM [4]: 62.9%
IC50 (experiment of Table 6): 1880 nM
% inhibition against the beta-amyloid 42 formation compared with curcumin: superior % inhibition
Molecule: COc1ccc2cc(/C=C/c3ccc(N(C)C)cc3)oc2c1 [hydrochloride of Ex. 9]

IC50 (experiment of Table 1): 820 nM
Molecule: COc1ccc2oc(C=Cc3ccc(N)cc3)cc2c1 [Compound 16, 5-methoxy-2-(4-aminostyryl)benzofuran]

IC50 (experiment of Table 1): 168 nM
% inhibition against the beta-amyloid 42 formation compared with curcumin: superior % inhibition
Molecule: CN(C)c1ccc(C=Cc2cc3cc(I)ccc3o2)cc1 [Compound 8, 5-iodo-2-(4-dimethylaminostyryl)benzofuran]

inhibition at 10 µM [5]: 82.8%
IC50 (experiment of Table 4): 1990 nM
Molecule: Nc1ccc(C=Cc2cc3cc(Cl)ccc3o2)cc1 [Compound 29, 5-chloro-2-(4-aminostyryl)benzofuran]

inhibition at 10 µM [3]: 62.8%
Molecule: CCN(CC)c1ccc(C=Cc2cc3ccc(OC)cc3o2)cc1 [Compound 57, 6-methoxy-2-(4-diethylaminostyryl)benzofuran]

inhibition at 10 µM [5]: 38%
IC50 (experiment of Table 4): 16800 nM
Molecule: COc1ccc(C=Cc2cc3cc(I)ccc3o2)cc1 [Compound 49, 5-iodo-2-(4-methoxystyryl)benzofuran]

IC50 (experiment of Table 1): 470 nM
% inhibition against the beta-amyloid 42 formation compared with curcumin: superior % inhibition
Molecule: CN(C)c1ccc(C=Cc2cc3cc(Br)ccc3o2)cc1 [Compound 7, 5-bromo-2-(4-dimethylaminostyryl)benzofuran]

Molecule: 5-methyl-2-(aminostyryl)benzofuran trifluoroacetate [Compound 39]
% Inhibition (10 μM) [3]: 60.23%

inhibition at 10 µM [4]: 68.4%
IC50 (experiment of Table 6): 2170 nM
% inhibition against the beta-amyloid 42 formation compared with curcumin: superior % inhibition
Molecule: CNc1ccc(C=Cc2cc3cc(Cl)ccc3o2)cc1 [Compound 30, 5-chloro-2-(4-methylaminostyryl)benzofuran]

inhibition at 10 µM [1]: 51.8%
IC50 (experiment of Table 2): > 100000 nM
Molecule: COc1ccc(C=Cc2cc3cc(Cl)ccc3o2)cc1 [Compound 33, 5-chloro-2-(4-methoxystyryl)benzofuran]

inhibition at 10 µM [2]: 67.4%
IC50 (experiment of Table 5): 3290 nM
Molecule: COc1ccc(C=Cc2cc3ccccc3o2)cc1OC [Compound 28, 2-(3,4-dimethoxystyryl)benzofuran]

inhibition at 10 µM [4]: 84.7%
IC50 (experiment of Table 6): 1490 nM
% inhibition against the beta-amyloid 42 formation compared with curcumin: superior % inhibition
Molecule: CNc1ccc(C=Cc2cc3cc(OCCOCCF)ccc3o2)cc1 [Compound 44, 5-(2-(2-fluoroethoxy)ethoxy)-2-(4-methylaminostyryl)benzofuran]

Molecule: Nc1ccc(C=Cc2cc3ccccc3o2)cc1 [Compound 24, 2-(4-aminostyryl)benzofuran trifluoroacetate]
inhibition at 10 µM: 70.7%
